According to US7166618B2, “Nitrosated and nitrosylated cyclooxygenase-2 inhibitors, compositions and methods of use” (NitroMed, Inc., priority 1999, dated 2007):

Tests used:
human COX-2 = target: T1, human COX-2 (Homo sapiens, UniProt P35354); assay: Assay for human COX-2 activity (COX Inhibitor Screening Assay, Cayman); assay type: biochemical; conditions: human COX-2, at 10 μM
T1 construct: purchased Cayman Chemical, Ann Arbor, Mich
T1 sequence (P35354 18-604): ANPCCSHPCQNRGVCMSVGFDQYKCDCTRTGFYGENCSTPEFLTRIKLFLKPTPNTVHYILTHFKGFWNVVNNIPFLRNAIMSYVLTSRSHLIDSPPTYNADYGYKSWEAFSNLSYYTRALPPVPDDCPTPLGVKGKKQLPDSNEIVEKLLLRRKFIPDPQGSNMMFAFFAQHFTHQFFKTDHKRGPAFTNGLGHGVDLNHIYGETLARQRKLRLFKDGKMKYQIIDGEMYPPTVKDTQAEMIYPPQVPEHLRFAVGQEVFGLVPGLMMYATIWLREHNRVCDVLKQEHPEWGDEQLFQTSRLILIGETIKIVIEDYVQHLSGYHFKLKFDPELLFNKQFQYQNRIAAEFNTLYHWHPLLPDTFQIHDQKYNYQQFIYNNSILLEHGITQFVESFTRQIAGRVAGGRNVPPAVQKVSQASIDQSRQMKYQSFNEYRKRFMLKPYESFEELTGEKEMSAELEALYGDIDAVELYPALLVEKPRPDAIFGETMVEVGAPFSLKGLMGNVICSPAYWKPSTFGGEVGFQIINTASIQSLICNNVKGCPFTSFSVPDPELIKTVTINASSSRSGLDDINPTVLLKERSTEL
Experimental: The human COX-1 and COX-2 activities and the measurement of the prostaglandin products synthesized were performed using the COX Inhibitor Screening Assay (Cayman Chemical, Ann Arbor, Mich., which also contained the Prostaglandin Screening EIA Kit, used for prostaglandin quantification). The test compounds were dissolved at 50 times the highest final reaction concentration in DMSO or any other suitable solvent as stock solutions. These stock solutions were then diluted in the same solvent. Eight glass test tubes (13×100 mm) were placed in a 25° C. water bath. To each test tube was added 950 μL of reaction buffer (0.1 M Tris-HCl, pH 8.0, containing 5 mM EDTA, and 2 mM phenol), 10 μL of 100 µM heme solution, and 10 μL (5 units) of either human COX-1 or COX-2 and the resulting mixture incubated with the enzyme for 2 minutes. Twenty μL of the solvent was added to one tube (100% initial activity or solvent control) and 20 μL of each dilution of the test compound was added to one tube each. Each tube was vortexed immediately after the addition. The enzyme was incubated with the inhibitor for 20 minutes at 25° C. The enzymatic reaction was then initiated by the addition of 10 μL of freshly prepared 10 mM arachidonic acid (neutralized with KOH), vortexed and then incubated for 2 minutes (or, in some cases as indicated, 30 seconds) at 37° C. The reaction was terminated by the addition of 50 μL of 1 M HCl, vortexed and placed at room temperature. One hundred microliters of a saturated stannous chloride solution (50 mg/mL of 0.1 M HCl) was added and the reaction mixture was allowed to stand at room temperature for at least 5 min.
The prostaglandins (PG) produced in the reactions were assayed, after a 2,000-fold dilution, using the Prostaglandin Screening EIA Kit (Cayman Chemical, Ann Arbor, Mich.). The assay contains an antibody with broad specificity for all the prostaglandin families (PGF, PGE, PGD, and thromboxane B-type) synthesized in the COX-1/COX 2 reactions. The synthesized prostaglandin competes with a PG-tagged acetylcholine esterase tracer for binding to the PG antibody. Binding of synthesized PG lowers the colorimetric development of the Ellman's Reagent (computed as % B/B0). The actual amount of synthesized PG was interpolated from a standard curve using known amounts of supplied prostaglandin E2 (PGE2) (PGE2 concentration vs. % B/B0). The data generated were the mean±standard deviation of triplicate wells in the EIA for a single reaction at a given inhibitor concentration.

[1] = system: rat aortic smooth muscle rings; assay: Relaxation of phenylephrine-contracted rat aortic smooth muscle rings; conditions: rings precontracted with 10 μM phenylephrine
Experimental: Male Sprague-Dawley rats (Charles River Laboratories (Wilmington, Mass.) were euthanized by intraperiton injection of a high dose of sodium pentobarbitone (80–100 mg/kg). The thoracic aorta was rapidly excised and immediately placed in a Petri dish containing warm (37° C.) oxygenated (95% O2 and 5% CO2) Kreb's buffer (composition per millimolar: NaCl (119); KCl (4.69); CaCl2.H2O (2.52); MgSO4.7H2O (0.57); NaHCO3 (25); NaH2PO4.H2O (1.01) and glucose (11.1). Under a stereoscopic dissecting microscope, the aorta was cleaned, freed from adhering fat and connective tissues. The tissue was cut into ring segments, each approximately 2–3 mm in length.
For experiments to measure relaxation of the tissue under various conditions, a stainless steel tissue holder and an U-shaped stainless steel wire were inserted into the lumen of the aortic ring. The tissue holder anchored the ring at the bottom of the organ bath whereas the end of the U-shaped steel wire was tied with fine silk thread so that it connected to the FT-202 transducer. The tissue holder and the steel wire along with the aortic ring were then suspended in a 5-mL double-jacketed temperature-controlled glass organ bath (Radnoti Glass Technology, Inc., Monrovia, Calif.) filled with fresh Kreb's buffer. A mixture of 95% O2 and 5% CO2 was bubbled through a porous sintered disc at the bottom of the bath. The rings were given an initial resting tension of 1.5 g and the preparation was allowed to equilibrate at the initial tension for about 90 minutes. During this equilibration period, the bath fluid was changed every 15 minutes and replaced with fresh prewarmed (37° C.) Kreb's buffer. The isometric tension of the aortic muscle at rest and its response to different stimuli were recorded on a Power Macintosh 6100 computer via a MacLab 8/S computer interface (CB Sciences, Inc, Milford, Mass.) after an initial amplification through a low-noise ETH-400 bioamplifier (CB Sciences, Inc, Milford, Mass.). Contractile responsiveness of the tissue strips was established with 10 μM phenylephrine and the strips were incubated with the drug for 20 minutes to establish a steady level of contraction. To test the relaxation effects, test compounds were added to the phenylephrine-precontracted strips in the tissue bath at cumulative concentrations of 0.1 μM to 0.1 mM. Concentration of test compounds was increased only after relaxation at the previous concentration had reached a plateau level.

In the case of `NS(=O)(=O)c1ccc(-c2c(-c3ccccc3)noc2CO[N+](=O)[O-])cc1` [Example 2b, 4-(5-((Nitrooxy)methyl)-3-phenylisoxazol-4-yl)benzenesulfonamide], the inhibition at 10 µM (human COX-2) is reported as 100%, the “relaxation of aortic smooth muscle ring” value ([1]; 100 nM to 100 μM test compound) is reported as “induced the relaxation of the aortic ring” and the “relaxation compared with reference NO donor (ISDN or GSNO)” value ([1]; comparator as in the value) is reported as “comparable to that obtained with ISDN”.
